Some results are limits rather than exact numbers.

The record followed here is US10730870B2, “Compounds and methods for the enhanced degradation of targeted proteins” (Arvinas, Inc., priority 2015, dated 2020).

The assay deals with VHL (Homo sapiens (Human), UniProt P40337). Put plainly: VHL fluorescence polarization (FP) competition assay. Type of assay: binding.

In general, IC50 refers to the concentration that inhibits the measured activity by half. Lower therefore signals greater potency in that assay. For `Cc1ncsc1-c1ccc(CNC(=O)[C@@H]2C[C@@H](O)CN2C(=O)[C@H](C(C)C)N2CCCC2=O)cc1` [Example 98, (2S,4R)-4-hydroxy-1-((S)-3-methyl-2-(2-oxopyrrolidin-1-yl)butanoyl)-N-(4-(4-methylthiazol-5-yl)benzyl)pyrrolidine-2-carboxamide], the IC50 (1% in DMSO) worked out at 4.15 µM. Same read-out and setting: the same measure for `Cc1ncsc1-c1ccc(CNC(=O)[C@@H]2C[C@@H](O)CN2C(=O)[C@H](C(C)C)N2Cc3ncccc3C2=O)cc1` [Example 99, (2S,4R)-4-hydroxy-1-((S)-3-methyl-2-(5-oxo-5H-pyrrolo[3,4-b]pyridin-6(7H)-yl)butanoyl)-N-(4-(4-methylthiazol-5-yl)benzyl)pyrrolidine-2-carboxamide]: 0.418 µM.

As for `CC(C)[C@@H](C(=O)N1C[C@H](O)C[C@H]1C(=O)NCc1ccc(-c2cnn[nH]2)cc1)N1Cc2ccccc2C1=O` [Example 100, (2S,4R)—N-(4-(1H-1,2,3-triazol-5-yl)benzyl)-4-hydroxy-1-((S)-3-methyl-2-(1-oxoisoindolin-2-yl)butanoyl)pyrrolidine-2-carboxamide], under “1% in DMSO”, the IC50 was 9.77 µM. Compared with the last compound, the IC50 is about 23-fold higher. Take `CC(C)[C@@H](C(=O)N1C[C@H](O)C[C@H]1C(=O)NCc1ccc(-c2ncon2)cc1)N1Cc2ccccc2C1=O` [Example 101, (2S,4R)—N-(4-(1,2,4-oxadiazol-3-yl)benzyl)-4-hydroxy-1-((S)-3-methyl-2-(1-oxoisoindolin-2-yl)butanoyl)pyrrolidine-2-carboxamide]: the IC50 (1% in DMSO) is 4.39 µM.

For the setting “1% in DMSO”, `CC(C)[C@@H](C(=O)N1C[C@H](O)C[C@H]1C(=O)NCc1ccc(-c2scnc2C(F)(F)F)cc1)N1Cc2ccccc2C1=O` [Example 102, (2S,4R)-4-hydroxy-1-((S)-3-methyl-2-(1-oxoisoindolin-2-yl)butanoyl)-N-(4-(4-(trifluoromethyl)thiazol-5-yl)benzyl)pyrrolidine-2-carboxamide] came in with an IC50 of 7.75 µM. The same measure, in the same setting: the same measure for `Cc1ncn(C)c1-c1ccc(CNC(=O)[C@@H]2C[C@@H](O)CN2C(=O)[C@H](C(C)C)N2Cc3ccccc3C2=O)cc1` [Example 103, (2S,4R)—N-(4-(1,4-dimethyl-1H-imidazol-5-yl)benzyl)-4-hydroxy-1-((S)-3-methyl-2-(1-oxoisoindolin-2-yl)butanoyl)pyrrolidine-2-carboxamide]: 33.8 µM; for `CC[C@H](C)[C@H](NCCc1ccccc1)C(=O)N1C[C@H](O)C[C@H]1C(=O)NCc1ccc(-c2scnc2C)cc1` [Example 104, (2S,4R)-4-hydroxy-1-((2S,3S)-3-methyl-2-(phenethylamino)pentanoyl)-N-(4-(4-methylthiazol-5-yl)benzyl)pyrrolidine-2-carboxamide]: > 10 µM.

Take `CC[C@H](C)[C@H](NC(C)c1ccccc1)C(=O)N1C[C@H](O)C[C@H]1C(=O)NCc1ccc(-c2scnc2C)cc1` (stereo partly drawn) [Example 105, (2S,4R)-4-hydroxy-1-((2S,3S)-3-methyl-2-(1-phenylethylamino)pentanoyl)-N-(4-(4-methylthiazol-5-yl)benzyl)pyrrolidine-2-carboxamide]: where the note is “1% in DMSO”, the IC50 is 37.7 µM.

In turn, `Cc1c(-c2ccc(CNC(=O)[C@@H]3C[C@@H](O)CN3C(=O)[C@H](C(C)C)N3Cc4ccccc4C3=O)cc2)ncn1C` [Example 106, (2S,4R)—N-(4-(1,5-dimethyl-1H-imidazol-4-yl)benzyl)-4-hydroxy-1-((S)-3-methyl-2-(1-oxoisoindolin-2-yl)butanoyl)pyrrolidine-2-carboxamide] yielded an IC50 (1% in DMSO) of 14.2 µM. Same read-out and setting: for `Cc1ncsc1-c1ccc(CNC(=O)[C@@H]2C[C@@H](O)CN2c2cccc(Oc3ccccc3)c2)cc1` [Example 109, (2S,4R)-4-hydroxy-N-(4-(4-methylthiazol-5-yl)benzyl)-1-(3-phenoxyphenyl)pyrrolidine-2-carboxamide] the value was 6.67 µM; for `COC1=CC(=O)N([C@H](C(=O)N2C[C@H](O)C[C@H]2C(=O)NCc2ccc(-c3scnc3C)cc2)C(C)C)C1` [Example 111, (2S,4R)-4-hydroxy-1-((S)-2-(4-methoxy-2-oxo-2,5-dihydro-1H-pyrrol-1-yl)-3-methylbutanoyl)-N-(4-(4-methylthiazol-5-yl)benzyl)pyrrolidine-2-carboxamide], 0.859 µM; for `Cc1ncsc1-c1ccc(CN/C(=N/C#N)[C@@H]2C[C@@H](O)CN2C(=O)[C@H](C(C)C)N2Cc3ccccc3C2=O)cc1` [Example 112, (2S,4R,E)-N′-cyano-4-hydroxy-1-((S)-3-methyl-2-(1-oxoisoindolin-2-yl)butanoyl)-N-(4-(4-methylthiazol-5-yl)benzyl)pyrrolidine-2-carboximidamide], > 100 µM.

For the compound `CC(C)[C@@H](C(=O)N1C[C@H](O)C[C@H]1C(=O)NCc1ccc(C2CC2)cc1)N1Cc2ccccc2C1=O` [Example 113, (2S,4R)—N-(4-cyclopropylbenzyl)-4-hydroxy-1-((S)-3-methyl-2-(1-oxoisoindolin-2-yl)butanoyl)pyrrolidine-2-carboxamide], the IC50 (1% in DMSO) is > 10 µM. Regarding `CC(C)[C@@H](C(=O)N1C[C@H](O)C[C@H]1C(=O)NCc1ccc(C2CCC2)cc1)N1Cc2ccccc2C1=O` [Example 114, (2S,4R)—N-(4-cyclobutylbenzyl)-4-hydroxy-1-((S)-3-methyl-2-(1-oxoisoindolin-2-yl)butanoyl)pyrrolidine-2-carboxamide], the IC50 (1% in DMSO) came to 47.3 µM. Same read-out and setting: for `CC(C)[C@@H](C(=O)N1C[C@H](O)C[C@H]1C(=O)NCc1ccc(C2CCCC2)cc1)N1Cc2ccccc2C1=O` [Example 115, (2S,4R)—N-(4-cyclopentylbenzyl)-4-hydroxy-1-((S)-3-methyl-2-(1-oxoisoindolin-2-yl)butanoyl)pyrrolidine-2-carboxamide] the value was 15.8 µM; for `CC(C)[C@@H](C(=O)N1C[C@H](O)C[C@H]1C(=O)NCc1ccc(C2=CCCC2)cc1)N1Cc2ccccc2C1=O` [Example 116, (2S,4R)—N-(4-cyclopentenylbenzyl)-4-hydroxy-1-((S)-3-methyl-2-(1-oxoisoindolin-2-yl)butanoyl)pyrrolidine-2-carboxamide], 3.9 µM; for `CC(C)[C@@H](C(=O)N1C[C@H](O)C[C@H]1C(=O)NCc1ccc(C2CCCCC2)cc1)N1Cc2ccccc2C1=O` [Example 117, (2S,4R)—N-(4-cyclohexylbenzyl)-4-hydroxy-1-((S)-3-methyl-2-(1-oxoisoindolin-2-yl)butanoyl)pyrrolidine-2-carboxamide], 15.5 µM. Compound `CC(C)[C@@H](C(=O)N1C[C@H](O)C[C@H]1C(=O)NCc1ccc(C2CCOCC2)cc1)N1Cc2ccccc2C1=O` [Example 118, (2S,4R)-4-hydroxy-1-((S)-3-methyl-2-(1-oxoisoindolin-2-yl)butanoyl)-N-(4-(tetrahydro-2H-pyran-4-yl)benzyl)pyrrolidine-2-carboxamide] registered an IC50 (1% in DMSO) of 330 µM. Take `Cc1ncsc1-c1ccc(CNC(=O)[C@@H]2C[C@@H](S)CN2C(=O)[C@H](C(C)C)N2Cc3ccccc3C2=O)cc1` [Example 119, (2S,4R)-4-mercapto-1-((S)-3-methyl-2-(1-oxoisoindolin-2-yl)butanoyl)-N-(4-(4-methylthiazol-5-yl)benzyl)pyrrolidine-2-carboxamide]: for the setting “1% in DMSO”, the “VHL FP Assay IC50” value is “Not Active”. `CO/N=C(/NCc1ccc(-c2scnc2C)cc1)[C@@H]1C[C@@H](O)CN1C(=O)[C@H](C(C)C)N1Cc2ccccc2C1=O` [Example 120, (2S,4R,E)-4-hydroxy-N′-methoxy-1-((S)-3-methyl-2-(1-oxoisoindolin-2-yl)butanoyl)-N-(4-(4-methylthiazol-5-yl)benzyl)pyrrolidine-2-carboximidamide] registered an IC50 (1% in DMSO) of 15.5 µM. That is a double-digit micromolar value. The same measure, in the same setting: the same measure for `Cc1ncsc1-c1ccc(CNC[C@@H]2C[C@@H](O)CN2C(=O)[C@H](C(C)C)N2Cc3ccccc3C2=O)cc1` [Example 121, 2-((S)-1-((2S,4R)-4-hydroxy-2-((4-(4-methylthiazol-5-yl)benzylamino)methyl)pyrrolidin-1-yl)-3-methyl-1-oxobutan-2-yl)isoindolin-1-one]: > 100 µM; for `Cc1ncsc1-c1ccc(CNC(=O)[C@@H]2C[C@@H](O)CN2C(=O)[C@@H](NC(=O)[C@H](C)NC(=O)OC(C)(C)C)C(C)(C)C)cc1` [Example 122, tert-butyl (S)-1-((S)-1-((2S,4R)-4-hydroxy-2-(4-(4-methylthiazol-5-yl)benzylcarbamoyl)pyrrolidin-1-yl)-3,3-dimethyl-1-oxobutan-2-ylamino)-1-oxopropan-2-ylcarbamate]: 2.18 µM. The compound `Cc1ncsc1-c1ccc(CNC(=O)[C@@H]2C[C@@H](O)CN2C(=O)[C@@H](NC(=O)[C@H](C)N)C(C)(C)C)cc1` [Example 123, (2S,4R)-1-((S)-2-((S)-2-aminopropanamido)-3,3-dimethylbutanoyl)-4-hydroxy-N-(4-(4-methylthiazol-5-yl)benzyl)pyrrolidine-2-carboxamide] registered an IC50 (1% in DMSO) of 4.23 µM. Same read-out and setting: for `Cc1ncsc1-c1ccc(CNC(=O)[C@@H]2C[C@@H](O)CN2C(=O)[C@@H](NC(=O)CNC(=O)OC(C)(C)C)C(C)(C)C)cc1` [Example 124, tert-butyl 2-((S)-1-((2S,4R)-4-hydroxy-2-(4-(4-methylthiazol-5-yl)benzylcarbamoyl)pyrrolidin-1-yl)-3,3-dimethyl-1-oxobutan-2-ylamino)-2-oxoethylcarbamate] the value was 1.11 µM. Same read-out and setting: for `Cc1ncsc1-c1ccc(CNC(=O)[C@@H]2C[C@@H](O)CN2C(=O)[C@@H](NC(=O)CN)C(C)(C)C)cc1` [Example 125, (2S,4R)-1-((S)-2-(2-aminoacetamido)-3,3-dimethylbutanoyl)-4-hydroxy-N-(4-(4-methylthiazol-5-yl)benzyl)pyrrolidine-2-carboxamide] the value was 1.64 µM. As to `Cc1ncsc1-c1ccc(CNC(=N)[C@@H]2C[C@@H](O)CN2C(=O)[C@H](C(C)C)N2Cc3ccccc3C2=O)cc1` [Example 126, (2S,4R)-4-hydroxy-1-((S)-3-methyl-2-(1-oxoisoindolin-2-yl)butanoyl)-N-(4-(4-methylthiazol-5-yl)benzyl)pyrrolidine-2-carboximidamide], the IC50 runs as follows: (1% in DMSO) 79.5 µM; (10% in DMSO) 112 µM. `CC(C)[C@@H](C(=O)N1C[C@H](O)C[C@H]1C(=O)NCc1ccc(C2(O)COC2)cc1)N1Cc2ccccc2C1=O` [Example 127, (2S,4R)-4-hydroxy-N-(4-(3-hydroxyoxetan-3-yl)benzyl)-1-((S)-3-methyl-2-(1-oxoisoindolin-2-yl)butanoyl)pyrrolidine-2-carboxamide] gave an IC50 (10% in DMSO) of 406 µM.
